Where two headings read alike, the source gives them in different places.
Key:
[1] = tested on: Candida albicans ATCC10231; assay: Candida albicans vaginitis in mice, intragastric administration; assay type: in vivo, KM mice; conditions: logarithm of the CFU values, mean ± SD of 20 mice, 20 mg/kg intragastric once a day
[2] = tested on: Candida albicans ATCC10231; assay: Systemic fungal infection in mice, intragastric administration; assay type: in vivo, ICR mice; conditions: Candida albicans, ATCC10231, po
[3] = In vitro metabolic stability in human plasma; assay type: in vitro ADME; conditions: human, plasma, 37° C., 10 μM compound, read-out: Human plasma T1/2
Summary of the method: (§1)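 Human or rat plasma, preincubated 5 min at 37 °C, or intestinal S9 at 37 °C, spiked from 1 mM stock; triplicates sampled at 1, 2, 5, 15 and 30 min into cold internal standard. HPLC quantitation; half-life by non-compartmental analysis.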

[4] = In vitro metabolic stability in rat plasma; assay type: in vitro ADME; conditions: rat, plasma, 37° C., 10 μM compound, read-out: Rat plasma T1/2
Summary of the method: as §1

[5] = In vitro metabolic stability in rat intestine S9; assay type: in vitro ADME; conditions: rat, intestinal S9, pH 7.4; 37° C., 10 μM compound, 1 mg/mL S9, NADPH regeneration system; read-out: Rat intestine S9 T1/2
Summary of the method: as §1

[6] = Solid stability test (stability chamber, HPLC total impurity); assay type: physicochemical
[7] = tested on: Candida albicans ATCC10231; assay: Systemic fungal infection in mice, intravenous administration; assay type: in vivo, ICR mice
[8] = In vitro metabolic stability in human intestine S9; assay type: in vitro ADME; conditions: human, intestinal S9; 37° C., 10 μM compound, 1 mg/mL S9, NADPH regeneration system; read-out: Human intestine S9 T1/2
Summary of the method: as §1

[9] = tested on: Aspergillus Fumigutus (AF) strains; assay: Aspergillus fumigatus keratitis in rats, intravenous administration; conditions: 10 mg/kg tail vein once daily for 5 days; mean ± SD of 10 rats
[10] = Determination of solubility in deionized water (HPLC, external standard); conditions: 25 °C, water, thermodynamic from solid
[11] = tested on: Aspergillus fumigatus AF293; assay: Lung Aspergillus fumigatus infection in immunosuppressed mice, intravenous administration; conditions: for responders at 20 mg/kg: Aspergillus fumigatus, AF293, in Mus musculus, iv
Experimental: ICR male mice were injected intraperitoneally with cyclophosphamide 150 mg/kg and injected subcutaneously with dexamethasone 150 mg/kg for 10 consecutive days. At the same time, the blood was taken to measure the changes of peripheral white blood cells and neutrophils, and mice with neutrophils consistently lower than 100/μl were selected as successfully immunosuppressed mice. Immediately after the last injection, the mice were anesthetized with ethyl ether, and mice were transferred from the initial state of excitement to inhibition. After their bodies were relaxed, the mice were immediately taken. Left hand was used to grasp the mouse to make it stand upright, the middle finger pressed the mouth so that it could breath only with the nose, and the ring finger gently pressed the abdomen to move the diaphragm muscle upward. 30 μl of conidia suspension (Aspergillus fumigatus AF293, 3×10^6 conidia) was sent to the nostrils of the anesthetized mice by a micropipette to allow spontaneous inhalation. After the mouse returned to normal breathing, it was returned to the cage. […] The death of the mice was observed and the survival time was recorded. Seven days later, the mice were sacrificed and their lung tissues were taken to observe the fungal loads of Aspergillus fumigatus in the lungs of the mice.

CC[C@@H]([C@H](C)O)n1ncn(-c2ccc(N3CCN(c4ccc(OC[C@@H]5CO[C@@](Cn6c[n+](C(C)OC(=O)N(C)c7ncccc7COC(=O)CN)cn6)(c6ccc(F)cc6F)C5)cc4)CC3)cc2)c1=O (stereo partly drawn) [ST0002]
vaginal fungal load of mice, day 3 ([1]; day 3): 4.18 ± 0.22
vaginal fungal load of mice, day 5 ([1]; day 5): 4.35 ± 0.41
vaginal fungal load of mice, day 7 ([1]; day 7): 3.97 ± 0.47
vaginal fungal load of mice, day 11 ([1]; day 11): 3.05 ± 0.27
responders at 20 mg/kg ([2]; 24 h, read-out: survival rate of mice, day 1, 20 mg/kg intragastric once daily for 5 days, day 1): 100%
responders at 20 mg/kg ([2]; 48 h, read-out: survival rate of mice, day 2, 20 mg/kg intragastric once daily for 5 days, day 2): 100%
responders at 20 mg/kg ([2]; 72 h, read-out: survival rate of mice, day 3, 20 mg/kg intragastric once daily for 5 days, day 3): 90%
responders at 20 mg/kg ([2]; 96 h, read-out: survival rate of mice, day 4, 20 mg/kg intragastric once daily for 5 days, day 4): 80%
responders at 20 mg/kg ([2]; 120 h, read-out: survival rate of mice, day 5, 20 mg/kg intragastric once daily for 5 days, day 5): 80%
responders at 20 mg/kg ([2]; 144 h, read-out: survival rate of mice, day 6, 20 mg/kg intragastric once daily for 5 days, day 6): 70%
responders at 20 mg/kg ([2]; 168 h, read-out: survival rate of mice, day 7, 20 mg/kg intragastric once daily for 5 days, day 7): 70%
half-life at 10 µM [3]: 0.78 ± 0.15 min
half-life at 10 µM [4]: 1.12 ± 0.35 min
half-life at 10 µM [5]: 18.5 ± 4.56 min
Total impurity increment in 30 days [6]: 0.63%
responders at 20 mg/kg ([7]; 24 h, read-out: survival rate of mice, day 1): 100%
responders at 20 mg/kg ([7]; 48 h, read-out: survival rate of mice, day 2): 100%
responders at 20 mg/kg ([7]; 72 h, read-out: survival rate of mice, day 3): 100%
responders at 20 mg/kg ([7]; 96 h, read-out: survival rate of mice, day 4): 100%
responders at 20 mg/kg ([7]; 120 h, read-out: survival rate of mice, day 5): 100%
responders at 20 mg/kg ([7]; 144 h, read-out: survival rate of mice, day 6): 90%
responders at 20 mg/kg ([7]; 168 h, read-out: survival rate of mice, day 7): 90%
half-life at 10 µM [8]: 14.9 ± 3.56 min
Amount of active fungi in cornea at day 7 [9]: 2.37 ± 0.49 10^3 CFU/ml
solubility at 30 min [10]: 30.8 mg/mL
responders at 20 mg/kg ([11]; 24 h, read-out: survival rate of mice, day 1, 20 mg/kg tail vein once daily for 5 days, day 1): 100%
responders at 20 mg/kg ([11]; 48 h, read-out: survival rate of mice, day 2, 20 mg/kg tail vein once daily for 5 days, day 2): 100%
responders at 20 mg/kg ([11]; 72 h, read-out: survival rate of mice, day 3, 20 mg/kg tail vein once daily for 5 days, day 3): 100%
responders at 20 mg/kg ([11]; 96 h, read-out: survival rate of mice, day 4, 20 mg/kg tail vein once daily for 5 days, day 4): 100%
responders at 20 mg/kg ([11]; 120 h, read-out: survival rate of mice, day 5, 20 mg/kg tail vein once daily for 5 days, day 5): 90%
responders at 20 mg/kg ([11]; 144 h, read-out: survival rate of mice, day 6, 20 mg/kg tail vein once daily for 5 days, day 6): 90%
responders at 20 mg/kg ([11]; 168 h, read-out: survival rate of mice, day 7, 20 mg/kg tail vein once daily for 5 days, day 7): 80%
lung fungal load ([11]; mouse lung tissue, seven days later, 20 mg/kg tail vein once daily for 5 days, mean ± SD): 1.89 ± 0.22 10^4 CFU/ml

Source: patent publication US10517867B2, “Posaconazole derivative, pharmaceutical composition and use thereof” (priority 2016, dated 2019)
